Experimental data from patent US6987127B2, “Regulation of NAD(P)H oxidase growth and transcription in melanoma cells” (Charlotte-Mecklenburg Hospital Authority, priority 2001, dated 2006).

Legend:
[1] = tested on: cyclic-AMP responsive element (CRE); settings: M1619 cells, overnight, 10, 15, 20 μmoles/L; P<0.001 vs untreated
[2] = tested on: p65 component of NF-κB; settings: M1619 cells, 50 μmol/L overnight
[3] = tested on: NF-κB p65; settings: M1619 cells, 50 μmol/L overnight
[4] = tested on: AP-1; settings: M1619 cells, overnight, 10-20 μmoles/L
[5] = tested on: IκBα; settings: M1619 cells, 25 μmoles/L overnight
[6] = tested on: NF-κB; settings: M1619 cells, 50 μmol/L overnight; P<0.001 by densitometry
[7] = tested on: M1619 malignant melanoma cells; experiment: Proliferation of cultured cells with oxidase inhibitors (MTT assay); format: cell-based, human; settings: for Melanoma growth: M1619, data not shown
[8] = tested on: OCT-1; settings: M1619 cells, overnight, 10-20 μmoles/L
[9] = tested on: M1619 malignant melanoma cells; settings: Brar and co-workers; cited from earlier work
[10] = tested on: H596 non-small-cell lung cancer cells; settings: Brar et al. (2001); cited from earlier work
[11] = tested on: M1619 cells; experiment: Proliferation after transfection of p22phox or NOX4 sense/antisense oligonucleotides (MTT assay); format: cell-based, human; settings: 2 μg oligonucleotide, 6 hours transfection, 48 hours growth, P<0.01

c1ccc2c(c1)[I+]c1ccccc1-2 [DPI, diphenylene iodonium]
CRE DNA binding activity of nuclear protein [1]: inhibits CRE-binding activity in a dose-dependent manner
Immunoreactive p65 in nuclear protein [2]: reduces immunoreactive p65 in nuclear protein
Constitutive nuclear translocation of NF-κB (anti-p65 staining in nuclei) [3]: reduces constitutive nuclear translocation of NF-κB
DNA binding to the AP-1 oligonucleotide consensus sequence [4]: does not inhibit
Phosphorylation of the NF-κB inhibitor IκBα (serine 32) [5]: decreased phosphorylation
Constitutive NF-κB DNA binding [6]: greatly reduced
inhibition at 50 µM ([7]; Homo sapiens, after 48 hours, highest dose (50 μmol/L), 10% FBS, P<0.001, read-out: Inhibition of M1619 malignant melanoma cell growth): 86 ± 0.5%
DNA binding to the OCT-1 oligonucleotide consensus sequence [8]: does not inhibit

Oc1ncnc2[nH]ncc12 [allopurinol]
Melanoma growth ([7]; 1 mmol/L): unaffected

O=c1oc2ccccc2c(O)c1Cc1c(O)c2ccccc2oc1=O [dicumarol]
Cellular proliferation in M1619 malignant melanoma cells [9]: inhibition
Growth of H596 non-small-cell lung cancer cells [10]: inhibited growth

N=C(NCCC[C@H](N)C(=O)O)N[N+](=O)[O-] [ω-nitro-L-arginine]
Melanoma growth ([7]; 100 μmol/L): unaffected

NOX4 antisense oliogonucleotides: antisense 5′-AGCTCCTCCAGGACACAGCC-3′ based on NOX4 gene-specific sequence (listed as DNA, chemistry not given here)
Subsequent growth compared with sense oligonucleotides [11]: significantly reduced subsequent growth

p22^phox antisense oliogonucleotides: previously reported antisense 5′-GATCTGCCCCATGGTGAGGACC-3′ for p22phox mRNA (listed as DNA, chemistry not given here)
Subsequent growth compared with sense oligonucleotides [11]: significantly reduced subsequent growth
